Test results from article PMC8952009 (Pharmaceuticals, 2022).
Entries after “also recorded” stand apart in the source; their conditions may differ.

Assays:
SARS-CoV-2 M^pro = biological target: T1, SARS-CoV-2 M^pro (Severe acute respiratory syndrome coronavirus 2, UniProt P0DTD1); assay: biochemical; details: for inhibition at 100 µM: read-out: Inhibition of enzymatic activity
T1 construct: This main protease is located in nsp5; purchased AnaSpec

SARS-CoV-1 M^pro = SARS-CoV-1 M^pro (Severe acute respiratory syndrome coronavirus, UniProt P0C6X7); assay: biochemical; details: for inhibition at 100 µM: read-out: Inhibition of enzymatic activity
MERS-CoV M^pro = MERS-CoV M^pro (Middle East respiratory syndrome-related coronavirus, UniProt K9N7C7); assay: biochemical; details: for inhibition at 100 µM: read-out: MERS-CoV M^pro activity inhibited to
MERS-CoV M^pro, sequence (K9N7C7 3248-3553 limits assumed): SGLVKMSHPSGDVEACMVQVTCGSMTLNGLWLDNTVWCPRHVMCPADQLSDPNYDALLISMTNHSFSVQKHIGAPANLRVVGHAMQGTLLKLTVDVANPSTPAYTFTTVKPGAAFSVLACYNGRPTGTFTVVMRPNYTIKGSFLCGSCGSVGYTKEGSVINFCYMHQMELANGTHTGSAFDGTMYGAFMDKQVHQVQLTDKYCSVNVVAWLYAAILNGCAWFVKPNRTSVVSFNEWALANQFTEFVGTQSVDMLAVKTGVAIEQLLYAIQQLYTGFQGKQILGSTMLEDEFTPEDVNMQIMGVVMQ

[1] = biological target: T2, recombinant M^pro of SARS-CoV-2 (Severe acute respiratory syndrome coronavirus 2, UniProt P0DTD1); assay: biochemical; type: binding
T2 construct: This main protease is located in nsp5; purchased Bio-Techne

SARS-CoV-2 = details: cited from earlier work
[2] = test system: human diploid MRC-5 lung fibroblasts; assay: Resazurin cell viability assay; details: MRC-5; tested range 0.3–100 µM; 72 h
[3] = biological target: recombinant M^pro of SARS-CoV-1 (Severe acute respiratory syndrome coronavirus, UniProt P0C6X7); assay: biochemical; type: binding
[4] = Resazurin cell viability assay; details: human, MRC-5 lung fibroblasts
[5] = biological target: recombinant M^pro of MERS-CoV (Middle East respiratory syndrome-related coronavirus, UniProt K9N7C7); assay: biochemical; type: binding
recombinant M^pro of MERS-CoV, sequence (K9N7C7 3248-3553 limits assumed): as above

hepatitis C virus (HCV) = details: chronic HCV infection; oral doses of 0.05 and 0.10 mg/kg/d; cited from earlier work
[6] = test system: human immunodeficiency virus (HIV); details: orally administered, 0.5 mg/kg daily; limited number of patients; cited from earlier work

Compound	IC50 (SARS-CoV-2 M^pro) [µM]	Percentage of activity of SARS-CoV-2 M^pro in the presence of compound (SARS-CoV-2 M^pro) [%]	inhibition at 100 µM (SARS-CoV-2 M^pro) [%]	inhibition at 100 µM (SARS-CoV-1 M^pro) [%]	inhibition at 100 µM (MERS-CoV M^pro) [%]	Kd [1] [µM]	IC50 value, inhibition of SARS-CoV-2 replication (SARS-CoV-2) [µg/mL]	Inhibitory effect on cell viability [2]	Therapeutic Index (SARS-CoV-2 M^pro)	IC50 (SARS-CoV-1 M^pro) [µM]	Therapeutic Index (SARS-CoV-1 M^pro)	Kd [3] [µM]	CC50 at 72 h [4] [µM]	IC50 (MERS-CoV M^pro) [µM]	Therapeutic Index (MERS-CoV M^pro)	Kd [5] [µM]	Anti-HCV activity in patients (hepatitis C virus (HCV))	Antiretroviral activity in clinical trial [6]
O=C(/C=C/c1ccc(O)c(O)c1)O[C@H](Cc1ccc(O)c(O)c1)C(=O)O [Rosmarinic acid]	9.43 ± 0.46	8.28	> 50	31	14.9	15.5 ± 4.77	25.47	did not show significant inhibitory effects; also recorded: did not inhibit										
COc1cc(-c2oc3cc(O)cc(O)c3c(=O)c2O)ccc1O [Isorhamnetin]	8.42 ± 1.15	8.56	> 50		26.3	4.37 ± 3.9		slight toxicity	4.37	13.1 ± 1.78	2.8	3.6 ± 2.6	36.8 ± 3.4					
O=c1cc(-c2ccc(O)c(O)c2)oc2cc(O)cc(O)c12 [Luteolin]	11.8 ± 1.27	10.10	> 50	44	21.3	13.4 ± 2.7												
Cc1cc(O)c2c(=O)c3c(O)cc(O)c4c5c(O)cc(O)c6c(=O)c7c(O)cc(C)c8c1c2c(c34)c(c78)c65 [Hypericin]	23.3 ± 1.21	4.95	> 50			7.73 ± 6.5		slight toxicity	2.38	19.4 ± 3.11	2.85	25.5 ± 13.6	55.5 ± 2.2	49.7 ± 5.41	1.11	54.9 ± 13.8	without detectable anti-HCV activity	without antiretroviral activity
